# Source: patent US11242327B2, “Analgesic compounds” (RECURIUM IP HOLDINGS, LLC, priority 2017, dated 2022)
# Tests used:
# male Sprague-Dawley rats = experiment: Post-Incisional (Brennan) Pain Test; assay type: in vivo; conditions: rat, oral; for cumulative pain score, 4 h: 4 h post-dosing; for cumulative pain score, 24 h: 24 h post-dosing
# Experimental: Incisional pain was induced in non-fasted male Sprague-Dawley rats weighing 180-300 g by making a 1-cm plantar incision in the left hind paw and is designed to mimic pain and sensitivity similar to what is reported by patients after surgery. Dosing occurred at the time of incision and spontaneous pain was measured 4 and 24 hours post-dosing using a cumulative pain score. The unrestrained animals were placed on a metal mesh platform and allowed to acclimate for about 15 min/ Each animal was closely observed during a 1-min period repeated every 5 min for 1 h (12 times total). Depending on the position in which the foot was found during the scoring period, a score of 0, 1, or 2 was given. Full weight bearing of the foot (score=0) was present if the skin on the plantar surface of the paw wound was blanched or distorted by the mesh. If the foot was completely off the mesh, or one or more instances of licking or flinching was observed, a score of 2 was recorded and the licking or flinching was noted but not counted. If the plantar surface of the paw touched the mesh without blanching or distorting, a score of 1 was given. The sum of the 12 scores obtained during the 1 h session was calculated (maximum score=24) for each animal. Observations were made during hours 4 and 24. Test articles were administered orally at concentrations of 10, 30 or 100 mg/kg and ketoprofen was administered subcutaneously at a concentration of 10 mg/kg. The control group received the vehicle (sterile water). In Table 6, ‘A’ designates a cumulative pain score of ≤11, ‘B’ designates >11 and ≤16, and ‘C’ designates >16.
# The results provided in Table 6 are for oral administration in rats.
# COX-1 = COX-1 (Homo sapiens, UniProt P23219); experiment: NSAIDS and Opioid Receptor Test: COX-1; assay type: biochemical; conditions: 200 μM
# Experimental: (§1) Compounds were screened as DMSO solutions at 10 μM, 100 μM, or 200 μM and values represent percent inhibition of control-specific binding. […] As NSAID and opioid mechanisms of action are precluded, a person of ordinary skill in the art understands that undesirable side effects associated with inhibition of COX receptors in NSAIDs and activation of opiate receptors in opioids can be avoided by compounds described herein. Furthermore, opioids are known to lose their analgesic potency after to continued administration. (See Benyamin, et al. “Opioid Complications and Side Effects” Pain Physician 11 (2008): S105-S120). As the data indicates compounds described herein have a different mechanism action compared to opioids, a person of ordinary skill in the art would appreciate that compounds described herein would not be expected to lose their analgesic potency like opioids after continued admininistration.
# COX-2 = biological target: T1, COX-2 (Homo sapiens, UniProt P35354); experiment: NSAIDS and Opioid Receptor Test: COX-2; assay type: biochemical; conditions: 200 μM
# T1 sequence (P35354 18-604): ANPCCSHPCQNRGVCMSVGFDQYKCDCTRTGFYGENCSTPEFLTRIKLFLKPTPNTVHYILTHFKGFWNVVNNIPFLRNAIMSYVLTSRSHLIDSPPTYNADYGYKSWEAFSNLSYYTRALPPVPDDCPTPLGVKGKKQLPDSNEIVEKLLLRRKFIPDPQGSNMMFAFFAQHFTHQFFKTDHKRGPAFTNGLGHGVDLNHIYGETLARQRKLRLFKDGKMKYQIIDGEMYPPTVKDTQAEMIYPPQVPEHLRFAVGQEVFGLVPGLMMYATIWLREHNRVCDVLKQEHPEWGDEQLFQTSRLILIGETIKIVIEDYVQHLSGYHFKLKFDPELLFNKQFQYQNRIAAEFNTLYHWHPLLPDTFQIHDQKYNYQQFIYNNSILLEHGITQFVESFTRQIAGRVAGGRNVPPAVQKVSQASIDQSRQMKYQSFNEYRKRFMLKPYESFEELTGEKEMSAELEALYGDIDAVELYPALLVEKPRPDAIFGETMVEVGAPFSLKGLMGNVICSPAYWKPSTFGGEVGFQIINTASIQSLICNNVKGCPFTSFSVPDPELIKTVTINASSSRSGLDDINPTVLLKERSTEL
# Experimental: as §1
# adult male C57BL/6 mice = experiment: Conditioned Place Preference (Abuse) Test; assay type: in vivo, mouse; conditions: mouse, in vivo, ip
# From the text: A conditioned place preference (CPP) model was used to assess the reward properties of compounds of formulae (Ie), or a pharmaceutically acceptable salt of any of the foregoing, in adult male C57BL/6 mice. The CPP model apparatus consisted of a Plexiglas© test unit having three (A, B, C) compartments (9 cm×9 cm×16 cm) configured to allow access to all chambers. Compartments A and C had textually distinct flooring and wall marking. Mice were placed in the middle compartment with free access to the other compartments. On day 1 and 2, the “naive chamber preference” was assessed by placing the animal in the middle chamber twice a day (AM and PM) for 30 min on two consecutive days, with the chamber showing the greatest residence time being called the “preferred chamber”. On “drug pairing days” (days 5, 6, 7 and 8) mice were injected IP with vehicle (50 mM citric acid) in the AM in the preferred chamber and the drug/vehicle in the afternoon in the non-preferred chamber for four consecutive days. On the morning of day 9 (the day after the last drug pairing), the “drug chamber preference” was assessed by placing the mouse (absent any injection) in the middle chamber, with free access to all chambers for 30 minutes. This was repeated five days later (day fourteen), with no intervening drug treatment.
# The time spent on days 9 and 14 (e.g. […] respectively after the last drug treatment) in the drug associated chamber was the test datum and is represented in FIG. 1. […] In contrast, there was no increase in the non-preferred chamber residence time when the least-preferred chamber was paired with saline, APAP or test compounds 2 or 28 on either days 9 or 14, or days 0 or 5.
# Sequence of COX-1 (P23219 24-599): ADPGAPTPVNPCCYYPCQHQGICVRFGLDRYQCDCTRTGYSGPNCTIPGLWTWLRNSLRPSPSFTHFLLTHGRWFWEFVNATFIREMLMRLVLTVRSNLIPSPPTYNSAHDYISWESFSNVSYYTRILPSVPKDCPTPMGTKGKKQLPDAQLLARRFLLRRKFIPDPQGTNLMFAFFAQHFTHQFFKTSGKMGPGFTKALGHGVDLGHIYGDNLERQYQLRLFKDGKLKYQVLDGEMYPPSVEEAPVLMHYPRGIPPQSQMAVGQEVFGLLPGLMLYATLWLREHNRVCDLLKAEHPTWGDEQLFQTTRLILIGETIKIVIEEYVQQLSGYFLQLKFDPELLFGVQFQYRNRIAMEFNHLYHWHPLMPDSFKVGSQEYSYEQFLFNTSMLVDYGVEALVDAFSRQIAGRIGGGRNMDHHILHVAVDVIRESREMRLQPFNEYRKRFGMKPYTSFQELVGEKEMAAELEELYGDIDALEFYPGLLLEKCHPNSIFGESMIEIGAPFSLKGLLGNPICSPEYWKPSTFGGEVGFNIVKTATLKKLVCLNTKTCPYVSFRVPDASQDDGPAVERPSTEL
SMILES,"cumulative pain score, 4 h (male Sprague-Dawley rats; 10 mg/kg)","cumulative pain score, 24 h (male Sprague-Dawley rats; 10 mg/kg)","cumulative pain score, 4 h (male Sprague-Dawley rats; 30 mg/kg)","cumulative pain score, 24 h (male Sprague-Dawley rats; 30 mg/kg)","cumulative pain score, 4 h (male Sprague-Dawley rats; 100 mg/kg)","cumulative pain score, 24 h (male Sprague-Dawley rats; 100 mg/kg)",inhibition at 200 µM (COX-1) [%],inhibition at 200 µM (COX-2) [%],least preferred (drug associated) chamber residence time (adult male C57BL/6 mice)
"Cl.NC12CC(c3nc(C(F)(F)F)cs3)(C1)C2 [Compound 1, 3-(4-(Trifluoromethyl)thiazol-2-yl)bicyclo[1.1.1]pentan-1-amine hydrochloride]",C (>16),B (>11 and ≤16),A (a cumulative pain score of ≤11),A (a cumulative pain score of ≤11),A (a cumulative pain score of ≤11),A (a cumulative pain score of ≤11),,,
"Cc1sc(C23CC(N)(C2)C3)nc1C(F)(F)F.Cl [Compound 2, 3-(5-Methyl-4-(trifluoromethyl)thiazol-2-yl)bicyclo[1.1.1]pentan-1-amine hydrochloride]",,,,,,,15,-2,no increase
